Target: Calpain-1 (Sus scrofa)
Assay: In vitro inhibition of porcine erythrocyte calpain 1.

Row | Ki | SMILES
1 | 92 nM | COC(=O)[C@H](C)NC(=O)C(=O)[C@@H](Cc1ccccc1)NC(=O)[C@H](CC(C)C)NC(=O)OCc1ccccc1 [(S)-2-[(R)-3-((S)-2-Benzyloxycarbonylamino-4-methyl-pentanoylamino)-2-oxo-4-phenyl-butyrylamino]-propionic acid methyl ester]
2 | 718 nM | CC(C)C[C@H](NC(=O)OCc1ccccc1)C(=O)N[C@H](Cc1ccccc1)C(=O)C(=O)N[C@@H](C)C(=O)O [(S)-2-[(R)-3-((S)-2-Benzyloxycarbonylamino-4-methyl-pentanoylamino)-2-oxo-4-phenyl-butyrylamino]-propionic acid]
3 | > 350000 nM | CCNC(=O)C(O)[C@@H](Cc1ccccc1)NC(=O)[C@H](CC(C)C)NC(=O)OCc1ccccc1 (stereo partly drawn) [[(S)-1-((R)-1-Benzyl-2-ethylcarbamoyl-2-hydroxy-ethylcarbamoyl)-3-methyl-butyl]-carbamic acid benzyl ester]

Source: BindingDB's records for doi:10.1021/jm00044a013 (Alkermes, 1994)
